Results published in US11079398B2, “Method for measurement of peptidic degradation products of a proteolytic cascade in blood samples” (ATTOQUANT DIAGNOSTICS GMBH, priority 2012, dated 2021).

Assays:
[1] = test system: renin-angiotensin system (RAS); experiment: RSSE-Fingerprinting: blood incubated at 37° C. with added agents, LC-MS/MS quantification of angiotensin peptides; assay type: biochemical, human; conditions: for Ang 1-8 steady state equilibrium level compared to control / Ang 1-10 steady state equilibrium level compared to control: heparinised blood, agent added prior to incubation at 37° C., 2 h or 4 h
Protocol: Blood samples were collected and anti-coagulated with standardised heparin tubes (BD). As indicated in FIGS. 3A-3C, plasma separation has been done for the respective samples before the incubation to reach steady state equilibrium.
Following plasma separation by centrifugation at 3000 rcf for 10 minutes at 4° C., […] of plasma was applied onto an activated and equilibrated SEP-PAK™ C18 cartridge. Sample matrix components were removed by washing three times with 1 ml water. Bound analytes were then eluted with 1 ml of methanol. Eluates were evaporated to dryness and reconstituted in 10% acetonitril/90% water supplemented with 0.1% formic acid followed by subjection to LC-MS/MS analysis.
A vacuum manifold has been used for sample processing. • 1. Activation: EtOH abs. • 2. Equilibration: 2×1 ml H2O • 3. Loading: 0.2-1 ml stabilised plasma • 4. Washing: 3×1 ml H2O • 5. Elution: 1 ml MeOH Quantification and Signal Integration
MRM chromatograms were integrated using Analyst 1.5.1 software provided by Applied Biosystems. The threshold for the quantification limit was set at a signal-to-noise ratio of 10. Integration signals not reaching this ratio were set to zero. Analyte signals were related to internal standard signals and concentration was calculated from initially spiked amounts of internal standards.

ACE2 = ACE2 (Homo sapiens, UniProt Q9BYF1); conditions: artificial matrix, vast excess of substrates; cited from earlier work
Sequence of ACE2 (Q9BYF1 18-805): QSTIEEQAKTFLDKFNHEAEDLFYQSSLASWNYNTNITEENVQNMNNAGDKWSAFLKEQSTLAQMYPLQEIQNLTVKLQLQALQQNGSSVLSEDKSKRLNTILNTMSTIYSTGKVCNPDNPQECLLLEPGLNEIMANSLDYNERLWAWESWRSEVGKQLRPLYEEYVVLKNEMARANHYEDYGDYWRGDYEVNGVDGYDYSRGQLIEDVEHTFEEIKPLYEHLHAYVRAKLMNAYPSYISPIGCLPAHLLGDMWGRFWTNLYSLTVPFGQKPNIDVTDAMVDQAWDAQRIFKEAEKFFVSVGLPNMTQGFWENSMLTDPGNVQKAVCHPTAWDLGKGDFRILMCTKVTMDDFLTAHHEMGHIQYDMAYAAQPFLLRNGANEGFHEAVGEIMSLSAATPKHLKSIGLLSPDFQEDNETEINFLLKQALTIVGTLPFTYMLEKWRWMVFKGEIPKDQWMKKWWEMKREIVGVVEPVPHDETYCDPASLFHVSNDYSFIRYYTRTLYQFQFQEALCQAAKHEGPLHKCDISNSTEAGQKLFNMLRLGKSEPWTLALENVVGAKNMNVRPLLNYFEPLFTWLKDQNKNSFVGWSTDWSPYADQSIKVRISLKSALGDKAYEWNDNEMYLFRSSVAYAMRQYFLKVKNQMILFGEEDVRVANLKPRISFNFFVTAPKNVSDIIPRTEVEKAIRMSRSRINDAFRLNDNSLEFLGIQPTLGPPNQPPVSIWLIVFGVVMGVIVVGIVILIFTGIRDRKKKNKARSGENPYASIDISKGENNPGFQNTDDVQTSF

Compound | Ang 1-8 steady state equilibrium level compared to control [1] | Ang 1-10 steady state equilibrium level compared to control [1] | also measured
CC(C)C[C@@H](N)[C@H](O)C(=O)N[C@H](C(=O)N[C@H](C(=O)N[C@@H](CC(=O)O)C(=O)O)C(C)C)C(C)C [Amastatin] | massively increase | – | steady state equilibrium Ang 1-10 level in the presence of ACE2 (ACE2 mediated Ang 1-9 production) ([1]; FIG. 2C1/2C3, 2 h incubation): further increases
C[C@H](CS)C(=O)N1CCC[C@H]1C(=O)O [Captopril] | decreased | increased | –
NCCCC[C@H](N[C@@H](CCc1ccccc1)C(=O)O)C(=O)N1CCC[C@H]1C(=O)O [Lisinopril] | decreased | increased | –
ACE2: recombinant soluble human ACE2 produced by Apeiron Biologics | – | – | shift of RSSE-Fingerprint ([1]; 5 μg/ml enzyme added prior to incubation): shifted as expected
angiotensin II (DRVYIHPF; Angiotensin-2; UniProt P01019 25-32, looked up) [Ang 1-8, angiotensin peptide, ACE2 substrate] | – | – | maximal ACE2 conversion rate for Ang 1-8 to Ang 1-7 relative to conversion rate for Ang 1-10 to Ang 1-9 (ACE2): 65 times
